Where two headings read alike, the source gives them in different places. Marks after values point to notes of the source that are not given here.
Tests used:
[1] = target: T1, human serum albumin (HSA) (Homo sapiens, UniProt P02768); test: Binding constant by fluorescence quenching of intrinsic Trp fluorescence
Experimental: Thus, the binding constant for bilirubin and lumirubin to HSA was determined by quenching of the intrinsic Trp fluorescence. […] F0 was the fluorescence of HSA without a quencher, F the fluorescence of HSA with a quencher, CL was the quencher concentration, and CP was the concentration of HSA. The effect of cooperative binding of lumirubin and bilirubin was also studied, and the results were compared to the Ka obtained in the systems with biliverdin and gossypol, which served as a displacing agent of bilirubin from HSA [31, 32].

[2] = target: T1, human serum albumin (HSA); test: Characterization of albumin binding sites by circular dichroism (CD) spectroscopy with marker ligands
Source text: CD spectra were obtained using a J-810 spectropolarimeter (Jasco, Japan) and analyzed as described elsewhere. […] For determination of the subdomain for lumirubin binding two compounds were used, hemin and bilirubin, as marker ligands for subdomain IB and IIA, respectively.

[3] = Stability of pigments in the incubation medium by HPLC
Experimental: The HPLC analyses were performed using an Agilent 1200 system (CA, USA) with a diode-array detector. […] The mobile phase consisted of 0.1 M di-n-octylamine acetate in methanol and water; the stationary phase was represented by a Poroshell 120, SB-C18 column (4.6 x 100 mm, 2.7 μm; Agilent, CA, USA). Samples were prepared by mixing 20 μl of bilirubin solution with 180 μl of ice-cold 0.1 M di-n-octylamine acetate in methanol, then vortexed and centrifuged to eliminate proteins. Twenty μl of the prepared sample was injected onto the column.
To check the stability of bilirubin PI, concentrations of bilirubin IXα, and EZ/ZE-bilirubins as well as Z-lumirubin after 1 and 24 hrs in the incubation medium were analysed by HPLC method (see above).

[4] = system: SH-SY5Y human neuroblastoma cell line; test: Cell viability (CellTiter-Glo and MTT); format: cell-based
Experimental: The SH-SY5Y human neuroblastoma cell line was used for the in vitro studies (ATCC, Manassas, VA, USA). Authentication of the cell line was confirmed by independent laboratory (Generi Biotech, Czech Republic). The cells were tested for Mycoplasma contamination using the MycoAlert luminescence test (Lonza, Switzerland). Cells were cultured in a mixture of MEM Eagle and Ham’s F12 media (1:1, v/v), containing 15% of fetal bovine serum, in 75 cm^2 culture flasks, at 37°C, in a 5% CO2 atmosphere. For functional tests, cells were seeded at a concentration of 50,000 cells per 1 cm^2.
The effect of bilirubin (24 μM), pure bilirubin PI (5%, 15%, and 30% of bilirubin PI in complete culture media), and the combination of bilirubin with bilirubin PI on cell viability was analyzed by both MTT (Sigma, Germany) as well as by luminescent CellTiter-Glo (Promega, USA) tests, using a Sunrise Microplate Reader (Tecan, Austria) and Synergy 2 Multi-mode Microplate Reader (BioTek, USA), respectively.

[5] = system: HMOX1; test: Gene expression by real-time PCR: HMOX1; format: cell-based, human; conditions: SH-SY5Y; bilirubin 24 μM, PI 15%; median (IQ range), n = 5; 1 hr exposure
Experimental: (§1) Briefly, total RNA was isolated in TriReagent (Sigma-Aldrich, St Louis, MO, USA) according to the manufacture's protocol and stored at -80°C until analysis. RNA quantity and purity were evaluated spectrophotometrically at 260 nm, and RNA integrity was evaluated by agarose gel electrophoresis. Retrotranscription of total RNA (1 μg) was performed with an iScript cDNA Synthesis Kit (Bio-Rad Laboratories, Hercules, CA, USA) according to the manufacturer's instructions. The final cDNA was conserved at -20°C until used. The primers for the targeted genes and the two housekeeping genes [hypoxanthine-guanine phosphoribosyltransferase (Hprt1) and glyceraldehydes 3-phosphate dehydrogenase (Gapdh)] were designed using Beacon Designer 2.0 software (PREMIER Biosoft International, Palo Alto, CA, USA). The quantitative analysis of gene expression was performed by real-time PCR. […] The relative quantification was made using iCycler iQ software, version 3.1 (Bio-Rad Laboratories, Hercules, CA, USA), by the ΔΔCt method, taking into account the efficiencies of the individual's genes, and normalizing the results to the two housekeeping genes. […] The results are expressed as the mean ± SD.

[6] = system: HMOX2; test: Gene expression by real-time PCR: HMOX2; format: cell-based, human; conditions: SH-SY5Y; bilirubin 24 μM, PI 15%; median (IQ range), n = 5; 1 hr exposure
Experimental: as §1

[7] = system: BLVRA; test: Gene expression by real-time PCR: BLVRA; format: cell-based, human; conditions: SH-SY5Y; bilirubin 24 μM, PI 15%; median (IQ range), n = 5; 1 hr exposure
Experimental: as §1

[8] = system: MRP1; test: Gene expression by real-time PCR: MRP1; format: cell-based, human; conditions: SH-SY5Y; bilirubin 24 μM, PI 15%; median (IQ range), n = 5
Experimental: as §1, with “The effect of bilirubin and bilirubin PI (24 μM bilirubin (corresponding to 140 nM Bf), 15% bilirubin PI, and a mixture of bilirubin and 15% PI) on the expression of genes involved in heme catabolism and in the regulation of the cell cycle (Table 1) was investigated in SH-SY5Y cells exposed to pigments for 1 and 24 hrs, respectively. Briefly,” for “Briefly,”, “The primers for the targeted genes and the two housekeeping genes [hypoxanthine-guanine phosphoribosyltransferase (Hprt1) and glyceraldehydes 3-phosphate dehydrogenase (Gapdh)] were designed using Beacon Designer 2.0 software (PREMIER Biosoft International, Palo Alto, CA, USA).” left out

[9] = system: MDR1; test: Gene expression by real-time PCR: MDR1; format: cell-based, human; conditions: SH-SY5Y; bilirubin 24 μM, PI 15%; median (IQ range), n = 5
Experimental: as §1, with “The effect of bilirubin and bilirubin PI (24 μM bilirubin (corresponding to 140 nM Bf), 15% bilirubin PI, and a mixture of bilirubin and 15% PI) on the expression of genes involved in heme catabolism and in the regulation of the cell cycle (Table 1) was investigated in SH-SY5Y cells exposed to pigments for 1 and 24 hrs, respectively. Briefly,” for “Briefly,”, “The primers for the targeted genes and the two housekeeping genes [hypoxanthine-guanine phosphoribosyltransferase (Hprt1) and glyceraldehydes 3-phosphate dehydrogenase (Gapdh)] were designed using Beacon Designer 2.0 software (PREMIER Biosoft International, Palo Alto, CA, USA).” left out

[10] = system: Cyclin D1; test: Gene expression by real-time PCR: Cyclin D1; format: cell-based, human; conditions: SH-SY5Y; bilirubin 24 μM, PI 15%; median (IQ range), n = 5
Experimental: as §1

[11] = system: Cyclin E; test: Gene expression by real-time PCR: Cyclin E; format: cell-based, human; conditions: SH-SY5Y; bilirubin 24 μM, PI 15%; median (IQ range), n = 5
Experimental: as §1

[12] = system: heme oxygenase (HMOX); test: Heme oxygenase activity determination (CO by gas chromatography); format: cell-based, human; conditions: SH-SY5Y; data not shown
Experimental: The activity of heme oxygenase (HMOX) was measured as described previously. In brief, culture media harvested from SH-SY5Y batches were added to CO-free, septum-sealed vials. CO released into the vial headspace was quantified using gas chromatography with a reduction gas analyzer (Peak Laboratories, Mountain View, CA, USA).

[13] = system: SH-SY5Y cells; test: Cell cycle phase by flow cytometry (propidium iodide); format: cell-based, human; conditions: bilirubin 24 μM, PI 15%, 1 and 24 hrs exposure, data not shown
Experimental: After centrifugation (310 x g; RT; 6 min), the sediments were re-suspended in 1 ml of staining solution in PBS containing 0.1% v/v Triton X-100, 20 μg/ml propidium iodide (PI), and 0.2 mg/ml DNAse free RNaseA. Samples were incubated in the dark for 30 min at RT, and subjected to FACS analysis (cytometer BD FACSCalibur TM; and CellQuest software, BD Biosciences, San Jose, CA). Data were collected for 10,000 events per sample.

T1 sequence (P02768 25-609): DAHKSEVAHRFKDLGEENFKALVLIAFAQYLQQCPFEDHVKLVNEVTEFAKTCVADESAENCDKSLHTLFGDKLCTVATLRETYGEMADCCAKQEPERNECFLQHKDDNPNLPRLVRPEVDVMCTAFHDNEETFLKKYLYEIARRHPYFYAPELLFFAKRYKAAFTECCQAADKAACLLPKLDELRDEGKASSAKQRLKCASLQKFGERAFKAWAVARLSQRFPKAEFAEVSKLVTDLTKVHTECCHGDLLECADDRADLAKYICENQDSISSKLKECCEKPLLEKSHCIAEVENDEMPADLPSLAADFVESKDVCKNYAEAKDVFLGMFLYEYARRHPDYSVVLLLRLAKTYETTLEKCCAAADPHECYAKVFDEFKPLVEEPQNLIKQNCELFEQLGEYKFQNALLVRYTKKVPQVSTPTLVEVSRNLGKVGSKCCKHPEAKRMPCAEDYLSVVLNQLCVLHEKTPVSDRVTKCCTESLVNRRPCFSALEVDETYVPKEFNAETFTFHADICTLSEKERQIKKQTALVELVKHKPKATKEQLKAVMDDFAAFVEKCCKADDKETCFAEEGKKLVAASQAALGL

C=CC1=C(C)/C(=C/c2[nH]c(CC3=C(CCC(=O)O)C4(C)CC=C5C(=CC4=N3)NC(=O)C5C)c(CCC(=O)O)c2C)NC1=O (stereo not shown) [lumirubin, Z-Lumirubin IXα]
Kd ([1]; ligand bound to HSA alone, fluorescence quenching, read-out: Ka, binding constant for the ligand-HSA complex): 1080 nM | Effect on bilirubin binding to HSA (CD signal) ([2]; both bilirubin and hemin bound to HSA, molar ratio 1/1/1): moderately affects bilirubin binding to HSA | Localization of binding site on HSA ([2]; marker ligands hemin (IB) and bilirubin (IIA), molar ratio 1/1/1): subdomain IB | Number of binding sites on HSA ([2]; pigment/HSA 1/1, 1.5 x 10^-5 mol/L, PBS pH 7.4): one binding site | Concentration remaining after 24 hrs in the incubation medium [3]: 31%

C=CC1=C(C)/C(=C/c2[nH]c(Cc3[nH]c(/C=C4\NC(=O)C(C)=C4C=C)c(C)c3CCC(=O)O)c(CCC(=O)O)c2C)NC1=O [bilirubin, Z,Z-Bilirubin IXα]
Kd [1]: 5.56 nM | Ka, binding constant bilirubin-(HSA-biliverdin) ([1]; bilirubin binding to HSA in presence of biliverdin): (1.1±0.4)·10^8 M^-1 | Ka, binding constant bilirubin-(HSA-gossypol) ([1]; bilirubin binding to HSA in presence of gossypol (displacer)): (1.4±0.2)·10^5 M^-1 | Ka, binding constant bilirubin-(HSA-lumirubin) ([1]; bilirubin binding to HSA in presence of lumirubin): (8.7±1.3)·10^7 M^-1 | Effect on cell viability, short-term exposure ([4]; 60 min exposure, data not shown): did not have any effect on cell viability | Effect on cell viability, 24 hr ([4]; 24 hr, bilirubin 24 μM, PI up to 30%, n = 7): significantly reduced | Effect on cell viability, 48 hr ([4]; 48 hr, bilirubin 24 μM, PI up to 30%, n = 4): significantly reduced | HMOX1 mRNA expression [5]: 232.2 (197–240) ^* % of control | HMOX2 mRNA expression [6]: 130.3 (129–166) ^* % of control | BLVRA mRNA expression [7]: 142.9 (109–179) % of control | MRP1 mRNA expression [8]: 76.3 (71–90) % of control | MDR1 mRNA expression [9]: 54.9 (35–84) % of control | Cyclin D1 mRNA expression [10]: 71.8 (64–157) % of control | Cyclin E mRNA expression [11]: 78.9 (50–126) % of control | Effect on HMOX activity [12]: not translated onto increase of HMOX activity | Effect on cell cycle progression [13]: no effect on the cell cycle progression | Stability after 24 hrs in the incubation medium [3]: stable

— paper PMC4735493, “The Biological Effects of Bilirubin Photoisomers” (PLoS ONE, 2016)
